Values joined by “and” are separate entries in the source; they are usually repeats but may differ in a detail not shown here. Equal entries are not always repeated. Numbers after ± are expanded uncertainties.
Conditions: Liquid, Vibrating wire viscometry

FC(F)C(F)(F)F [pentafluoroethane]
Conditions | viscosity
253.99 K, 1440 kPa | 0.2707 ± 0.0071 mPa·s
253.99 K, 1450 kPa | 0.271 ± 0.0071 mPa·s
253.99 K, 1460 kPa | 0.271 ± 0.0071 mPa·s
253.99 K, 1470 kPa | 0.2711 ± 0.0071 mPa·s
253.99 K, 1480 kPa | 0.2707 ± 0.0071 mPa·s
253.99 K, 3250 kPa | 0.2794 ± 0.0072 mPa·s
253.99 K, 3280 kPa | 0.2794 ± 0.0072 mPa·s and 0.279 ± 0.0072 mPa·s and 0.2789 ± 0.0072 mPa·s
253.99 K, 5050 kPa | 0.2876 ± 0.0074 mPa·s
253.99 K, 5060 kPa | 0.2874 ± 0.0074 mPa·s
253.99 K, 5100 kPa | 0.2875 ± 0.0074 mPa·s
253.99 K, 5140 kPa | 0.2875 ± 0.0074 mPa·s
253.99 K, 7350 kPa | 0.2984 ± 0.0076 mPa·s
253.99 K, 7360 kPa | 0.2984 ± 0.0076 mPa·s
253.99 K, 7380 kPa | 0.2982 ± 0.0076 mPa·s
263.23 K, 1430 kPa | 0.2381 ± 0.0065 mPa·s
263.23 K, 1440 kPa | 0.2373 ± 0.0065 mPa·s and 0.2375 ± 0.0065 mPa·s
263.23 K, 1460 kPa | 0.2382 ± 0.0065 mPa·s
263.23 K, 1480 kPa | 0.2377 ± 0.0065 mPa·s
263.23 K, 3050 kPa | 0.2452 ± 0.0066 mPa·s
263.23 K, 3060 kPa | 0.2453 ± 0.0066 mPa·s
263.23 K, 3070 kPa | 0.2456 ± 0.0066 mPa·s
263.23 K, 5030 kPa | 0.2531 ± 0.0068 mPa·s
263.23 K, 5050 kPa | 0.2529 ± 0.0068 mPa·s
263.23 K, 5060 kPa | 0.2535 ± 0.0068 mPa·s
263.23 K, 5070 kPa | 0.2538 ± 0.0068 mPa·s
263.23 K, 5080 kPa | 0.2538 ± 0.0068 mPa·s
263.23 K, 5110 kPa | 0.2534 ± 0.0068 mPa·s
263.23 K, 7530 kPa | 0.2643 ± 0.007 mPa·s
263.23 K, 7560 kPa | 0.2645 ± 0.007 mPa·s
263.23 K, 7610 kPa | 0.2645 ± 0.007 mPa·s
263.23 K, 7640 kPa | 0.2646 ± 0.007 mPa·s
263.23 K, 9770 kPa | 0.2743 ± 0.0071 mPa·s
263.23 K, 9800 kPa | 0.274 ± 0.0071 mPa·s
263.23 K, 9820 kPa | 0.2745 ± 0.0072 mPa·s
273.08 K, 1460 kPa | 0.2076 ± 0.006 mPa·s
273.08 K, 1480 kPa | 0.2075 ± 0.006 mPa·s
273.08 K, 1490 kPa | 0.2074 ± 0.006 mPa·s
273.08 K, 1500 kPa | 0.2074 ± 0.006 mPa·s and 0.2073 ± 0.006 mPa·s
273.08 K, 2940 kPa | 0.2147 ± 0.0061 mPa·s
273.08 K, 2950 kPa | 0.2145 ± 0.0061 mPa·s
273.08 K, 2990 kPa | 0.2145 ± 0.0061 mPa·s
273.08 K, 5020 kPa | 0.2234 ± 0.0063 mPa·s
273.08 K, 5030 kPa | 0.2229 ± 0.0062 mPa·s and 0.2233 ± 0.0063 mPa·s
273.08 K, 5040 kPa | 0.2224 ± 0.0062 mPa·s and 0.2226 ± 0.0062 mPa·s
273.08 K, 7480 kPa | 0.2324 ± 0.0064 mPa·s
273.08 K, 7490 kPa | 0.2327 ± 0.0064 mPa·s and 0.2324 ± 0.0064 mPa·s
273.08 K, 7510 kPa | 0.2324 ± 0.0064 mPa·s
273.08 K, 7520 kPa | 0.2326 ± 0.0064 mPa·s
273.08 K, 7530 kPa | 0.2324 ± 0.0064 mPa·s
273.08 K, 9680 kPa | 0.2416 ± 0.0066 mPa·s
273.08 K, 9690 kPa | 0.2419 ± 0.0066 mPa·s and 0.2421 ± 0.0066 mPa·s
273.08 K, 9710 kPa | 0.2416 ± 0.0066 mPa·s
283.29 K, 1550 kPa | 0.1781 ± 0.0055 mPa·s
283.29 K, 1580 kPa | 0.1789 ± 0.0055 mPa·s
283.29 K, 1590 kPa | 0.1788 ± 0.0055 mPa·s
283.29 K, 1600 kPa | 0.1785 ± 0.0055 mPa·s
283.29 K, 1620 kPa | 0.1783 ± 0.0055 mPa·s
283.29 K, 3000 kPa | 0.1852 ± 0.0056 mPa·s
283.29 K, 3010 kPa | 0.185 ± 0.0056 mPa·s
283.29 K, 3030 kPa | 0.1852 ± 0.0056 mPa·s
283.29 K, 3060 kPa | 0.185 ± 0.0056 mPa·s
283.29 K, 5190 kPa | 0.1957 ± 0.0058 mPa·s
283.29 K, 5220 kPa | 0.1955 ± 0.0058 mPa·s [middle of 4 runs]
283.29 K, 5230 kPa | 0.1953 ± 0.0058 mPa·s
283.29 K, 5270 kPa | 0.1956 ± 0.0058 mPa·s
283.29 K, 7590 kPa | 0.2059 ± 0.006 mPa·s
283.29 K, 7600 kPa | 0.2057 ± 0.006 mPa·s [middle of 5 runs]
283.29 K, 10040 kPa | 0.2155 ± 0.0061 mPa·s and 0.2159 ± 0.0061 mPa·s
283.29 K, 10050 kPa | 0.2155 ± 0.0061 mPa·s
283.29 K, 10070 kPa | 0.2155 ± 0.0061 mPa·s
283.29 K, 10080 kPa | 0.2157 ± 0.0061 mPa·s
293.13 K, 2020 kPa | 0.1577 ± 0.0052 mPa·s
293.13 K, 2030 kPa | 0.1581 ± 0.0052 mPa·s
293.13 K, 2070 kPa | 0.1583 ± 0.0052 mPa·s
293.13 K, 2100 kPa | 0.1584 ± 0.0052 mPa·s
293.13 K, 2110 kPa | 0.1583 ± 0.0052 mPa·s
293.13 K, 2140 kPa | 0.1583 ± 0.0052 mPa·s
293.13 K, 5080 kPa | 0.172 ± 0.0054 mPa·s
293.13 K, 5100 kPa | 0.1716 ± 0.0054 mPa·s
293.13 K, 5130 kPa | 0.1719 ± 0.0054 mPa·s and 0.1715 ± 0.0054 mPa·s
293.13 K, 7530 kPa | 0.1818 ± 0.0056 mPa·s and 0.1813 ± 0.0056 mPa·s and 0.1811 ± 0.0056 mPa·s
293.13 K, 9990 kPa | 0.1918 ± 0.0057 mPa·s
293.13 K, 10030 kPa | 0.1915 ± 0.0057 mPa·s
293.13 K, 10040 kPa | 0.1917 ± 0.0057 mPa·s [middle of 4 runs]
293.13 K, 10050 kPa | 0.1914 ± 0.0057 mPa·s
